Results taken from PubChem BioAssay (NCI).
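A five-concentration, 48-hour dose response in 96-well plates underlies each endpoint, interpolated linearly between surrounding concentrations. TGI: total growth inhibition.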

Tests used:
Experiment in all cases: inhibition of tumour cell growth, NCI panel, 48 h
[1] = test system: SNB-75 CNS
[2] = test system: SK-MEL-2 melanoma
[3] = test system: NCI/ADR-RES ovarian
[4] = test system: KM12 colon
[5] = test system: OVCAR-5 ovarian
[6] = test system: HCC-2998 colon
[7] = test system: BT-549 breast
[8] = test system: SF-295 CNS
[9] = test system: NCI-H460 lung
[10] = test system: CAKI-1 renal
[11] = test system: SF-268 CNS
[12] = test system: HCT-15 colon
[13] = test system: NCI-H23 lung
[14] = test system: MCF7 breast
[15] = test system: LOX IMVI melanoma
[16] = test system: HS 578T breast
[17] = test system: SK-MEL-5 melanoma
[18] = test system: HL-60(TB) leukemia
[19] = test system: UO-31 renal
[20] = test system: M19-MEL melanoma

Row | Structure (SMILES) | TGI [1] [µM] | TGI [2] [µM] | TGI [3] [µM] | TGI [4] [µM] | TGI [5] [µM] | TGI [6] [µM] | TGI [7] [µM] | TGI [8] [µM] | TGI [9] [µM] | TGI [10] [µM] | TGI [11] [µM] | TGI [12] [µM] | TGI [13] [µM] | TGI [14] [µM] | TGI [15] [µM] | TGI [16] [µM] | TGI [17] [µM] | TGI [18] [µM] | TGI [19] [µM] | TGI [20] [µM]
1 | CC(=O)Oc1ccc2c(c1)c1c(=O)oc(C)nc1n2Cc1ccccc1 | > 87.7 | > 71.6 | > 100 | > 100 | > 100 | > 100 | > 66.3 | > 100 | > 100 | 34.4 | > 100 | > 100 | > 100 | > 100 | > 100 | > 100 | > 100 | > 100 | 13.8 | –
2 | C=CC1C(OC2OC(CO)C(O)C(O)C2O)OC=C(C(=O)OC)C1CC1CC(=O)CC(CCc2ccc(O)cc2)O1 (centres undefined) | > 100 | > 100 | > 100 | > 100 | > 100 | > 100 | > 100 | > 100 | > 100 | > 100 | > 100 | > 100 | > 100 | > 100 | > 100 | > 100 | > 100 | > 100 | > 100 | –
3 | CN1C(=O)CSC1=S | > 100 | > 100 | – | > 100 | > 100 | – | – | > 100 | > 100 | > 100 | > 100 | > 100 | > 100 | – | > 100 | – | > 100 | > 100 | > 100 | > 100
4 | c1ccc([P+](CC[P+](c2ccccc2)(c2ccccc2)c2ccccc2)(c2ccccc2)c2ccccc2)cc1 | > 76.5 | 43.6 | > 100 | > 100 | > 100 | 44.5 | > 100 | > 100 | 35 | > 100 | > 100 | > 100 | > 100 | > 100 | > 100 | > 100 | 39.6 | 55.2 | > 100 | –
5 | O=C1c2cccc3cccc(c23)C(=O)N1CCCNCCCNCCCCNCCCNCCCN1C(=O)c2cccc3cccc(c23)C1=O | 12.5 | 16.8 | 46.8 | 13.9 | 21.9 | 16.8 | 15.1 | 24.4 | 14.1 | 29.6 | 12.9 | 30.9 | 16 | 1.61 | > 38.1 | 13.3 | 41.1 | 4.64 | 30.4 | –
6 | COc1ccc(CC2c3cc(OC)c(OC)cc3CC[N+]2(C)C)cc1OC (centres undefined) | > 100 | > 100 | > 100 | > 100 | > 100 | > 100 | > 100 | > 100 | > 100 | > 100 | > 100 | > 100 | > 100 | > 100 | > 100 | > 100 | > 100 | > 100 | > 100 | –
7 | Cc1nc2ccc(NC(=S)Nc3ccccc3)cc2c(=O)n1-c1ccccc1 | > 100 | > 100 | > 100 | > 100 | > 100 | > 100 | > 100 | > 100 | > 100 | > 100 | > 100 | > 100 | > 100 | > 100 | > 100 | > 100 | > 100 | > 100 | > 100 | –
8 | CCOC(=O)CO/N=C1/C(c2c(O)[nH]c3ccccc23)=Nc2ccccc21 | 9.88 | > 100 | > 100 | > 100 | > 100 | > 100 | > 100 | > 100 | > 100 | > 100 | > 100 | > 100 | > 100 | > 100 | > 100 | > 100 | > 100 | > 100 | > 100 | –
9 | CCCCCCOc1ccc(Nc2c(O)c3c(c(O)c2Cl)C(=O)C=CC3=O)cc1 | > 10 | 7.05 | 6.54 | > 7.66 | > 10 | 3.86 | > 6.01 | > 10 | 6.52 | > 10 | > 10 | 3.68 | 4.95 | > 4.88 | 3.61 | 8.39 | 3.02 | 3.74 | > 5.81 | –
10 | Cc1cc(C)c(C[C@H]2COC(=O)[C@]2(O)Cc2c(C)cc(C)cc2C)c(C)c1 | 43.6 | 40.2 | 39.1 | 37.1 | 35.9 | 30.7 | 35.2 | 34.1 | 33.3 | 34.6 | 30 | 36.2 | 47.2 | 34 | 36.1 | 38.5 | 39.6 | 42.4 | 38.4 | –
11 | O=C(Oc1cccnc1)c1cc2cc(CCl)ccc2oc1=O | 79.7 | 54 | 76.6 | > 100 | 64.6 | > 100 | 53.7 | > 100 | > 100 | 35 | 45.3 | 58.5 | 39.5 | 11.3 | 44.7 | 55.1 | > 100 | 58.4 | 44.5 | –
12 | O=C(O/C=C\OC1CCCC1(c1ccccc1)c1ccccc1)c1ccccc1 (centres undefined) | 20.9 | 15 | 8.99 | 33.1 | 31.1 | > 49.4 | 4.58 | 34.9 | 88.8 | > 63.6 | 14.1 | 5.72 | 6.07 | 6.67 | 3.22 | 23.6 | 23.8 | 4.68 | 3.84 | –
